Patent publication US10479805B2, “Beta-lactamase inhibitor” (priority 2016, dated 2019)
In brackets after ≈: the same amount, converted by molar mass.

Legend:
Assay in all cases: Broth microdilution MIC, cephalosporin alone
Type in all cases: cell-based
[1] = system: Pseudomonas aeruginosa expressing class B enzyme VIM-2
Source text: (§1) To determine that ability of the test compound to inhibit the growth of beta-lactamase-producing bacterial strain, traditional cell-based screening experiments were employed. Six bacterial strains producing beta-lactamases were used: Escherichia coli expressing class an extended spectrum beta-lactamases (esbl) ctxm15 and shv5 (E. coli), Klebsiella pneumoniae expressing class a carbapenem enzyme kpc2, Pseudomonas aeruginosa expressing class B VIM-2, Enterobacter cloacae expressing class C P99+, and Acinetobacter baumannii expressing class D OXA-23 were studied. […] This experiment was performed in Cation Adjusted Mueller Hinton Broth (CAMHB, BD #212322, BD Diagnostic Systems, Sparks, Md.). The bacterial strains were grown in CAMBH broth for […]. All six strains were grown in the presence of 50 μg/mL ampicillin to ensure that resistance was maintained. At the same time, the test compound was diluted into 0.1 mg/mL stock solution in DMSO. The compound was added to the microplate and diluted in a 2-fold series in CAMHB to a final concentration of 32 to 0.25 μg/mL. A cover layer containing cephalosporin CAMHB was added to the compound at a termination concentration of 8 μg/mL or […]. […] The MIC reading of the dose escalation test of the test compound indicates the concentration of the analyte sufficient to inhibit beta-lactamase activity and protect the original antibacterial activity of cephalosporins. Six plates are required for each compound and each plate is used for one bacterial strain. In addition to the dose escalation test of the test compound, the MIC of a group of cephalosporins was tested to ensure that the strain remained consistent in behavior between the test and the test. Once the test compound and cephalosporin are added, the plates may be inoculated. The inoculation was carried out according to the CLSI broth microdilution method.

[2] = system: Acinetobacter baumannii expressing class D enzyme OXA-23
Source text: as §1

[3] = system: Escherichia coli expressing class A ESBL SHV5; conditions: read-out: MIC alone
Source text: as §1

[4] = system: Klebsiella pneumoniae expressing carbapenem class A KPC2; conditions: antibiotic alone, K. pneumoniae KPC2, CAMHB
Source text: as §1

[5] = system: Enterobacter cloacae expressing class C P99+AmpC
Source text: as §1

[6] = system: E. coli expressing class A ESBLCTXM15; conditions: Escherichia coli
Source text: as §1

| SMILES | MIC [1] | MIC [2] | MIC [3] | MIC [4] | MIC [5] | MIC [6] |
| --- | --- | --- | --- | --- | --- | --- |
| CC(C)(O/N=C(\C(=O)N[C@@H]1C(=O)N2C(C(=O)[O-])=C(C[n+]3ccccc3)CS[C@H]12)c1csc(N)n1)C(=O)O [Ceftazidime] | > 256 µg/mL | > 256 µg/mL | > 1020 µg/mL | 32 µg/mL (≈ 58.5 µM) | 256 µg/mL (≈ 468 µM) |  |
| CO/N=C(\C(=O)N[C@@H]1C(=O)N2C(C(=O)O)=C(COC(C)=O)CS[C@H]12)c1csc(N)n1 [cefotaxime] |  |  |  |  |  | 1020 µg/mL (≈ 2250 µM) |
